Data as given in patent EP4745137A1 (Gluetacs Therapeutics (Shanghai) Co., Ltd., priority 2023, dated 2025).

Tests used:
[1] = molecular target: T1, WEE1 (Homo sapiens, UniProt P30291+Q96SW2); test: Western-blot assay of substrate protein degradation in hPBMCs, WEE1; format: cell-based; details: 24 hours of compound treatment, compounds tested at 50 nM and 500 nM (concentration of the table not stated)
T1 construct: endogenous in cells; host or cells: hPBMCs (Milecell Biotechnologies)

[2] = molecular target: T2, IKZF1 (Homo sapiens, UniProt Q13422+Q96SW2); test: Western-blot assay of substrate protein degradation in hPBMCs, IKZF1; format: cell-based; details: 24 hours of compound treatment, compounds tested at 50 nM and 500 nM (concentration of the table not stated)
T2 construct: endogenous in cells; host or cells: hPBMCs (Milecell Biotechnologies)

[3] = molecular target: T3, IKZF2 (Homo sapiens, UniProt Q96SW2+Q9UKS7); test: Western-blot assay of substrate protein degradation in hPBMCs, IKZF2; format: cell-based; details: 24 hours of compound treatment, compounds tested at 50 nM and 500 nM (concentration of the table not stated)
T3 construct: endogenous in cells; host or cells: hPBMCs (Milecell Biotechnologies)

[4] = molecular target: T4, IKZF3 (Homo sapiens, UniProt Q96SW2+Q9UKT9); test: Western-blot assay of substrate protein degradation in hPBMCs, IKZF3; format: cell-based; details: 24 hours of compound treatment, compounds tested at 50 nM and 500 nM (concentration of the table not stated)
T4 construct: endogenous in cells; host or cells: hPBMCs (Milecell Biotechnologies)

[5] = molecular target: T5, CK1α (Homo sapiens, UniProt P48729+Q96SW2); test: Western-blot assay of substrate protein degradation in hPBMCs, CK1α; format: cell-based; details: 24 hours of compound treatment, compounds tested at 50 nM and 500 nM (concentration of the table not stated)
T5 construct: endogenous in cells; host or cells: hPBMCs (Milecell Biotechnologies)

[6] = molecular target: T6, GSPT1 (Homo sapiens, UniProt P15170+Q96SW2); test: Western-blot assay of substrate protein degradation in hPBMCs, GSPT1; format: cell-based; details: 24 hours of compound treatment, compounds tested at 50 nM and 500 nM (concentration of the table not stated)
T6 construct: endogenous in cells; host or cells: hPBMCs (Milecell Biotechnologies)

[7] = molecular target: T7, human Cereblon WT GST-tagged protein (Homo sapiens, UniProt Q96SW2); test: CRBN-binding affinity by HTRF (CEREBLON BINDING kit); details: HTRF inhibitory activity, CEREBLON BINDING kit; read-out: HTRF IC50
T7 construct: purchased CISBIO 64BDCRBNPEH

[8] = tested on: Vcap; test: Tumor cell proliferation inhibition (CellTiter-Meiluncell Luminescent Cell Viability Assay), Vcap; details: Homo sapiens, 96 h, read-out: inhibitory activity (IC50, nM) against tumor cells proliferation, Vcap
[9] = tested on: TMD8; test: Tumor cell proliferation inhibition (CellTiter-Meiluncell Luminescent Cell Viability Assay), TMD8; details: Homo sapiens, TMD8, 96 h, read-out: inhibitory activity (IC50, nM) against tumor cells proliferation, TMD8
[10] = tested on: SW620; test: Tumor cell proliferation inhibition (CellTiter-Meiluncell Luminescent Cell Viability Assay), SW620; details: Homo sapiens, SW-620, 96 h, read-out: inhibitory activity (IC50, nM) against tumor cells proliferation, SW620
[11] = tested on: Jurkat; test: Tumor cell proliferation inhibition (CellTiter-Meiluncell Luminescent Cell Viability Assay), Jurkat; details: Homo sapiens, 96 h, read-out: inhibitory activity (IC50, nM) against tumor cells proliferation, Jurkat
[12] = tested on: CAL-62; test: Tumor cell proliferation inhibition (CellTiter-Meiluncell Luminescent Cell Viability Assay), CAL-62; details: Homo sapiens, CAL-62, 96 h, read-out: inhibitory activity (IC50, nM) against tumor cells proliferation, CAL-62
[13] = tested on: MGC803; test: Tumor cell proliferation inhibition (CellTiter-Meiluncell Luminescent Cell Viability Assay), MGC803; details: Homo sapiens, MGC-803, 96 h, read-out: inhibitory activity (IC50, nM) against tumor cells proliferation, MGC803
[14] = tested on: CCRF-CEM; test: Tumor cell proliferation inhibition (CellTiter-Meiluncell Luminescent Cell Viability Assay), CCRF-CEM; details: Homo sapiens, 96 h, read-out: inhibitory activity (IC50, nM) against tumor cells proliferation, CCRF-CEM
[15] = tested on: MM.1R; test: Tumor cell proliferation inhibition (CellTiter-Meiluncell Luminescent Cell Viability Assay), MM.1R; details: Homo sapiens, 96 h, read-out: inhibitory activity (IC50, nM) against tumor cells proliferation, MM.1R
[16] = tested on: Human acute T lymphocytic leukemia cells (Molt-4); test: Tumor cell proliferation inhibition (CellTiter-Meiluncell Luminescent Cell Viability Assay), Molt-4; details: MOLT-4, 96 h, read-out: inhibitory activity (IC50, nM) against tumor cells proliferation, Molt 4
[17] = tested on: NCI-H1975; test: Tumor cell proliferation inhibition (CellTiter-Meiluncell Luminescent Cell Viability Assay), NCI-H1975; details: Homo sapiens, NCI-H1975, 96 h, read-out: inhibitory activity (IC50, nM) against tumor cells proliferation, H1975
[18] = tested on: Human breast cancer cells (MDA-MB-231); test: Tumor cell proliferation inhibition (CellTiter-Meiluncell Luminescent Cell Viability Assay), MDA-MB-231; details: MDA-MB-231, 96 h, read-out: inhibitory activity (IC50, nM) against tumor cells proliferation, MDA-MB-231

T6 sequence (P15170 whole entry): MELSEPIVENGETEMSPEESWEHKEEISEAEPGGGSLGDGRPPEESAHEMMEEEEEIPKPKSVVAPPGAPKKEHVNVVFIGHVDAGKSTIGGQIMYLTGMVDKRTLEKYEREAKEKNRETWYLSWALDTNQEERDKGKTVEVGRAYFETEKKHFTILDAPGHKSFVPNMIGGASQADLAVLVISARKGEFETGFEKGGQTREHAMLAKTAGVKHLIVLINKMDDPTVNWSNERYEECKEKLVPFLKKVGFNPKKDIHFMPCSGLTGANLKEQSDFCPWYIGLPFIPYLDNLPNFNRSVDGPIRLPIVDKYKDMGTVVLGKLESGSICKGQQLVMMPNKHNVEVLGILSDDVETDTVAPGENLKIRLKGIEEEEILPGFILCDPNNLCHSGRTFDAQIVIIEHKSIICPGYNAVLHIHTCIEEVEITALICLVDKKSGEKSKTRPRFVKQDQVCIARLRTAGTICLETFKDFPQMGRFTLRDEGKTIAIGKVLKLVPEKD
T6 sequence (Q96SW2 whole entry): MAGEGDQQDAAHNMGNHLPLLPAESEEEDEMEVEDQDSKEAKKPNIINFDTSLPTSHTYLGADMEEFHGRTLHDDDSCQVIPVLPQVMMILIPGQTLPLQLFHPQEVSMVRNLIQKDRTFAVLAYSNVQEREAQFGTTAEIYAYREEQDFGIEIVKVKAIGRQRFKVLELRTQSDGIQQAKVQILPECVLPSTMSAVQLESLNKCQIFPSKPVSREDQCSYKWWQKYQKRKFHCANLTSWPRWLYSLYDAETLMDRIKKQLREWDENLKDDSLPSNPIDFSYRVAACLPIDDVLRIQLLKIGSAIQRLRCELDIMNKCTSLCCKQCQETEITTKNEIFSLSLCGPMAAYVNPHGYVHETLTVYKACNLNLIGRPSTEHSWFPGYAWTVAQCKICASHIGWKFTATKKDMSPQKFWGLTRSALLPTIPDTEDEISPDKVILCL
T6 sequence (Q16531 whole entry partner): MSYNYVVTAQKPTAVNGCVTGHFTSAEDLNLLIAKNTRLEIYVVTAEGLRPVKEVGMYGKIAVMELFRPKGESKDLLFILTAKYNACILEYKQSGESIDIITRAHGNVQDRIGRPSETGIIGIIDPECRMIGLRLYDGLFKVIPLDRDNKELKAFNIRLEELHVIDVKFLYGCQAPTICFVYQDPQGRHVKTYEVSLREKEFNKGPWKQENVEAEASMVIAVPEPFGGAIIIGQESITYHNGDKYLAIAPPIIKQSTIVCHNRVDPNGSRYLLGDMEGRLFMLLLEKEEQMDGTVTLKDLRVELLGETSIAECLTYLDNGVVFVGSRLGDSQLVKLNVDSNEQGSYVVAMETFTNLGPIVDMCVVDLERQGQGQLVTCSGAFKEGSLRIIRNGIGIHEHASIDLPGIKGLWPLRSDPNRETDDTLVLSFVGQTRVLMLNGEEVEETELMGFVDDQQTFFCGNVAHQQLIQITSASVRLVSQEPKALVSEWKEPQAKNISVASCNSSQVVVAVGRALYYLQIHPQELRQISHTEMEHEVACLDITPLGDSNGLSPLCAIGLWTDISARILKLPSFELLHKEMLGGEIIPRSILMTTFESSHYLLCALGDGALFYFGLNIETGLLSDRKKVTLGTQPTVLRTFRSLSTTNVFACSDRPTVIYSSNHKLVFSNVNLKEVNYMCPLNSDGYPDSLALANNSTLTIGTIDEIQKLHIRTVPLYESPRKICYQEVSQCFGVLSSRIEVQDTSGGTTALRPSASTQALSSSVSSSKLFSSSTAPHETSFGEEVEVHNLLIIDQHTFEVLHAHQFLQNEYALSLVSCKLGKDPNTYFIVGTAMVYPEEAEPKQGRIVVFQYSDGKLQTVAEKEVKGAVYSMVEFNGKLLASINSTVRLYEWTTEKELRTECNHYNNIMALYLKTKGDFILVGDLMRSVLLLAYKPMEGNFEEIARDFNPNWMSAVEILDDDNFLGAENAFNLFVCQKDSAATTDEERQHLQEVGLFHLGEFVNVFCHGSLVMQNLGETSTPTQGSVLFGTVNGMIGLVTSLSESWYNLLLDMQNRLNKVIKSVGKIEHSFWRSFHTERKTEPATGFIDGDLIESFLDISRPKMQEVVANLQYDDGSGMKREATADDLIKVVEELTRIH
T7 sequence (Q96SW2 whole entry): as the sequence (Q96SW2 whole entry) above
T2 sequence (Q13422 whole entry): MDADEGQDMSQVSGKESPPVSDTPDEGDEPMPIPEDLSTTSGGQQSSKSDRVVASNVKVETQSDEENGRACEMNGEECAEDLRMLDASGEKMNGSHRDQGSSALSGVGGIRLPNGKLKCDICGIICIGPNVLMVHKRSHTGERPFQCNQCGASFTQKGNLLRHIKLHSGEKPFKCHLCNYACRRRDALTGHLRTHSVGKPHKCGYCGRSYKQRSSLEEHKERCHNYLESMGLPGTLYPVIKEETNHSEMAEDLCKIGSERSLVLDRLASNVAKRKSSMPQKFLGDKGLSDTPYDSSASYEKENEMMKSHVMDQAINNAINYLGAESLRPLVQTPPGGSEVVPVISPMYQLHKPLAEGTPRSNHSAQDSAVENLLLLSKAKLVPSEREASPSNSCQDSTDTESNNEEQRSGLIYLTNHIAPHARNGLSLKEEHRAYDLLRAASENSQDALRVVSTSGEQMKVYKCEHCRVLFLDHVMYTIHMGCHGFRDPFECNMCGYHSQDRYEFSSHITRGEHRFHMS
T2 sequence (Q96SW2 whole entry): as the sequence (Q96SW2 whole entry) above
T2 sequence (Q16531 whole entry partner): as the sequence (Q16531 whole entry partner) above
T3 sequence (Q9UKS7 whole entry): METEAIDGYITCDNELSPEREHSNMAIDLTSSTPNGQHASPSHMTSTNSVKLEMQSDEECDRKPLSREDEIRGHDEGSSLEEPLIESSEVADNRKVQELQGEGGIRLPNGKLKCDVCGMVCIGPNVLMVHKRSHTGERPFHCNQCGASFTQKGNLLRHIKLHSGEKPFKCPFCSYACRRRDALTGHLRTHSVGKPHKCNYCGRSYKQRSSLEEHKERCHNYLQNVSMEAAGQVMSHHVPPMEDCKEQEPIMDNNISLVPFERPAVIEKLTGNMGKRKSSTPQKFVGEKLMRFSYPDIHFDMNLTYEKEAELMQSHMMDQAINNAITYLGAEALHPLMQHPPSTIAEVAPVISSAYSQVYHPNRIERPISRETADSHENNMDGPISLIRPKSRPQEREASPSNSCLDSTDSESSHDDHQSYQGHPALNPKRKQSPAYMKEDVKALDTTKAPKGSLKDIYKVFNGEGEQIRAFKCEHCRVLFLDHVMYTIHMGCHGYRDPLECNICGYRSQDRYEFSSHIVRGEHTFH
T3 sequence (Q96SW2 whole entry): as the sequence (Q96SW2 whole entry) above
T3 sequence (Q16531 whole entry partner): as the sequence (Q16531 whole entry partner) above
T1 sequence (P30291 whole entry): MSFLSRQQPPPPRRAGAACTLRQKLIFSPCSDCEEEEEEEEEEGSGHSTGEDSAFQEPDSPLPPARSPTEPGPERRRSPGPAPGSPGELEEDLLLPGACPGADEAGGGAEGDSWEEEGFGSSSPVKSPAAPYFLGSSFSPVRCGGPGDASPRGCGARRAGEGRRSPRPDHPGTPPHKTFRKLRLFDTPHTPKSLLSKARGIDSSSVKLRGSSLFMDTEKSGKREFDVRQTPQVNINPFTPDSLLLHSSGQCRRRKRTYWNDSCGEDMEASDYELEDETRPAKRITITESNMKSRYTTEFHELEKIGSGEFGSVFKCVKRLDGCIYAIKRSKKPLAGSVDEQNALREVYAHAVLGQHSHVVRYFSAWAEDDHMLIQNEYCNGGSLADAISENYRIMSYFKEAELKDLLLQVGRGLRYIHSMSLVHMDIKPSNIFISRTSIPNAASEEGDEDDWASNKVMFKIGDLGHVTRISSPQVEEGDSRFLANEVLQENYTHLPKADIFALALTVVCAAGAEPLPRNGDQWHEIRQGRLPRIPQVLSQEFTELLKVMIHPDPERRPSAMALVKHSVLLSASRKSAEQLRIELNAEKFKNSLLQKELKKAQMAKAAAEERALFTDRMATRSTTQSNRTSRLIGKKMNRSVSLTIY
T1 sequence (Q96SW2 whole entry): as the sequence (Q96SW2 whole entry) above
T1 sequence (Q16531 whole entry partner): as the sequence (Q16531 whole entry partner) above
T5 sequence (P48729 whole entry): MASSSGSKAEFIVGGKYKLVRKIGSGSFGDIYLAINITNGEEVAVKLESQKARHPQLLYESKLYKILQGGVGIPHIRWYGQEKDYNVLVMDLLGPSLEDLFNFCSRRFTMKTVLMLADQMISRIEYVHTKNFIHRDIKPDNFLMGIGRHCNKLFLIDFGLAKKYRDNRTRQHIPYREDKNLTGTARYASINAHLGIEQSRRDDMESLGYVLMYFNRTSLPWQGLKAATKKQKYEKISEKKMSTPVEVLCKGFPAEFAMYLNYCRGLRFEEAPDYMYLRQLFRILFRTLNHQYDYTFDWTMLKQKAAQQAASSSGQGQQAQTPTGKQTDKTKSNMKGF
T5 sequence (Q96SW2 whole entry): as the sequence (Q96SW2 whole entry) above
T5 sequence (Q16531 whole entry partner): as the sequence (Q16531 whole entry partner) above

IC50 [7] [µM] | IC50 [8] [nM] | IC50 [9] [nM] | IC50 [10] [nM] | IC50 [11] [nM] | IC50 [12] [nM] | IC50 [13] [nM] | IC50 [14] [nM] | IC50 [15] [nM] | IC50 [16] [nM] | IC50 [17] [nM] | IC50 [18] [nM] | Compound | Weel substrate protein remaining % [1] | IKZF 1 substrate protein remaining % [2] | IKZF2 substrate protein remaining % [3] | IKZF3 substrate protein remaining % [4] | CK1a substrate protein remaining % [5] | GSPT1 substrate protein remaining % [6]
1 to 1.5 | 5 to 10 | 10 to 50 | 50 to 100 | 1 to 5 | 1 to 5 | 10 to 50 | 1 to 5 | – | – | – | – | O=C1CCC(N2Cc3cc(CN4CCN(c5cccc(Cl)c5Cl)CC4)ccc3C2=O)C(=O)N1 (centres unmarked) [GT-04201, 3-(5-((4-(2,3-dichlorophenyl)piperazin-1-yl)methyl)-1-oxoisoindolin-2-yl)piperidine-2,6-dione] | A (0% ≤ substrate protein remaining % ≤ 80%) | B (80%< substrate protein remaining %≤ 100%) | A (0% ≤ substrate protein remaining % ≤ 80%) | B (80%< substrate protein remaining %≤ 100%) | A (0% ≤ substrate protein remaining % ≤ 80%) | A (0% ≤ substrate protein remaining % ≤ 80%)
0.5 to 1 | 1 to 5 | 10 to 50 | 1 to 5 | 1 to 5 | 1 to 5 | 10 to 50 | 1 to 5 | – | – | – | – | O=C1CCC(N2Cc3cc(CN4CCN(c5cccc6sccc56)CC4)ccc3C2=O)C(=O)N1 (centres unmarked) [GT-04202, 3-(5-((4-(benzo[b]thiophen-4-yl)piperazin-1-yl)methyl)-1-oxoisoindolin-2-yl)piperidine-2,6-dione] | A (0% ≤ substrate protein remaining % ≤ 80%) | A (0% ≤ substrate protein remaining % ≤ 80%) | A (0% ≤ substrate protein remaining % ≤ 80%) | A (0% ≤ substrate protein remaining % ≤ 80%) | A (0% ≤ substrate protein remaining % ≤ 80%) | A (0% ≤ substrate protein remaining % ≤ 80%)
0.5 to 1 | 50 to 100 | – | 500 to 1000 | 10 to 50 | 10 to 50 | 500 to 1000 | 10 to 50 | 10 to 50 | 5 to 10 | 500 to 1000 | 500 to 1000 | Cc1ccc(Cl)cc1N1CCN(Cc2ccc3c(c2)CN(C2CCC(=O)NC2=O)C3=O)CC1 (centres unmarked) [GT-04440, 3-(5-((4-(5-chloro-2-methylphenyl)piperazin-1-yl)methyl)-1-oxoisoindolin-2-yl)piperidine-2,6-dione] | A (0% ≤ substrate protein remaining % ≤ 80%) | A (0% ≤ substrate protein remaining % ≤ 80%) | A (0% ≤ substrate protein remaining % ≤ 80%) | A (0% ≤ substrate protein remaining % ≤ 80%) | A (0% ≤ substrate protein remaining % ≤ 80%) | A (0% ≤ substrate protein remaining % ≤ 80%)
1 to 1.5 | 50 to 100 | – | 100 to 500 | 10 to 50 | 10 to 50 | 500 to 1000 | 10 to 50 | 10 to 50 | 10 to 50 | 100 to 500 | 500 to 1000 | COc1cccc(N2CCN(Cc3ccc4c(c3)CN(C3CCC(=O)NC3=O)C4=O)CC2)c1 (centres unmarked) [GT-04448, 3-(5-((4-(3-methoxyphenyl)piperazin-1-yl)methyl)-1-oxoisoindolin-2-yl)piperidine-2,6-dione] | A (0% ≤ substrate protein remaining % ≤ 80%) | A (0% ≤ substrate protein remaining % ≤ 80%) | A (0% ≤ substrate protein remaining % ≤ 80%) | A (0% ≤ substrate protein remaining % ≤ 80%) | A (0% ≤ substrate protein remaining % ≤ 80%) | A (0% ≤ substrate protein remaining % ≤ 80%)
